According to publication PMC12596500, “Affinity-selected peptide ligands specifically bind i-motif DNA and modulate c-Myc gene expression” (Nucleic Acids Research, 2025):

Legend:
c-MycC52 iM = experiment: Fluorescent indicator displacement (FID) assay with Thiazole Orange; assay type: binding; conditions: 1 µM c-MycC52, 2 µM TO, 10 mM sodium cacodylate pH 6.6, peptides 25-200 µM, n = 3
Method: Fluorescent indicator displacement (FID) experiments used in this publication are based on the first FID assay developed for iM DNA [35]. The FID experiments were performed on a BMG CLARIOstar plate reader using 96-well, solid black flat-bottom plates. Thiazole Orange (TO) was the indicator, and the stock solution was prepared at 10 mM in DMSO. The TO stock was diluted into the appropriate buffer to 2 µM. Each well received 9 µl of the 2 µM TO solution, was excited at 430 nm, and fluorescence emission at 450 nm was measured; this was normalized to 0% to account for background fluorescence. One microlitre of […] DNA was added to each well and shaken in the plate reader for 30 s using double orbital shaking at 700 rpm and left for 10 min to equilibrate. Following equilibration, fluorescence emission was measured and normalized to 100% representing maximum fluorescence. Peptides were titrated starting at 25 µM, with 0.9 µl additions into each well in triplicate, until a final concentration of 200 µM was reached, and fluorescence emission was measured after each addition. Fluorescence emission for each well was normalized between 0% and 100%, which was taken away from 100 to give the percentage of displacement. The data were analyzed in Origin data analysis software and fitted with a hyperbolic dose–response curve from which the DC50 value was interpolated.
The relative binding of the five peptide ligands to the folded c-MycC52 iM was assessed via a FID assay using TO (Fig. 1). These experiments were performed in 10 mM sodium cacodylate at pH 6.6, the transitional pH of the c-Myc iM-forming sequence. As iM-formation is reduced at higher pH and higher ionic strength, additional stabilizing cations were avoided to allow the highest proportion of iM formation at the highest pH, to represent as close to physiological pH conditions as possible.
Figure 1. Concentration-dependent interaction of peptides with c-MycC52 iM determined via FID assay. The assay was performed with 1 µM c-MycC52 in 10 mM sodium cacodylate, pH 6.6, in the presence of 2 µM TO. Peptide ligands were added in increments of 25 µM up to a final concentration of 200 µM. Data are presented as mean ± SD (n = 3) and fitted using a Hill-Slope dose–response curve.

dsDNA (DS) = experiment: CD melting of double-stranded DNA; assay type: binding; conditions: 10 µM DS, 10 mM NaCaco pH 6.6, 10 molar eqv. peptide vs buffer; n=2
Method: Circular Dichroism (CD) melting experiments were performed in a Jasco J-1500 spectropolarimeter with 10 µM DNA samples in 10 mM sodium cacodylate buffer at pH 6.6 using a 1 mm path length quartz cuvette. […] The samples were kept at 5°C for 5 min before starting the melt, with a temperature increase of 1°C/min, a 0.5°C data interval, and a 60-s holding time at each target temperature. Four scans were accumulated data pitch of 0.5 nm, a scanning speed of 200 nm/min, 1 s response time, 2 nm bandwidth, and 200 mdeg sensitivity. Furthermore, two CD melting experiment repeats were performed recording C-rich c-Myc at 288 and 320 nm, G-rich c-Myc at 264 and 320 nm, and dsDNA at 253 and 320 nm with the settings as described for full spectrum measurements. Data were zero corrected to 320 nm and baseline drift. The melting temperature (TM) was concluded using the Boltzmann or biphasic fitting curve on the folded fraction data using GraphPad Prism version 10.1.2. Data were processed as mean ± SEM (n = 4) and one-way ANOVA followed by Bonferroni post-hoc test to determine significant changes between peptides and controls.

[1] = molecular target: short c-Myc iM-forming sequence; conditions: cited from earlier work
Method: To support the experiments on the stabilizing properties of the peptides, we also performed direct binding measurements of Pep-VSE and Pep-PTN using UV titrations. Binding curves are provided in Supplementary Fig. S11, and Kds are in Table 2. These experiments reveal tight binding of both PTN (0.93 ± 0.08 µM) and VSE (0.43 ± 0.03 µM) compared to other DNA structures. Although binding was detected for both peptides against c-MycG52, the G4-forming sequence in the complementary strand, there was no plateau at the concentrations examined. So, we have estimated a lower limit of 50 µM as the potent ...

## EIEY TDHMK ELG [Pep-EIE, linear 12-mer peptide selected by phage display against c-MycC52; N-terminal acetylation, C-terminal amidation]
c-MycC52 iM
  relative binding affinity ranking (TO displacement): SLC > PTN > VSE > EIE > RVS

## RVS TDHMK GRGG [Pep-RVS, linear 12-mer peptide selected by phage display against c-MycC52; N-terminal acetylation, C-terminal amidation]
c-MycC52 iM
  relative binding affinity ranking (TO displacement): SLC > PTN > VSE > EIE > RVS

## SLCDIIRIEKVR [Pep-SLC, linear 12-mer peptide selected by phage display against c-MycC52; N-terminal acetylation, C-terminal amidation]
c-MycC52 iM
  relative binding affinity ranking (TO displacement): SLC > PTN > VSE > EIE > RVS
dsDNA (DS)
  destabilization of dsDNA (decrease in TM): 5 °C

## NC[C@H]1O[C@H](O[C@H]2[C@H](O)[C@@H](O[C@H]3O[C@H](CO)[C@@H](O)[C@H](N)[C@H]3O)[C@H](N)C[C@@H]2N)[C@H](N)C[C@@H]1O [tobramycin]
[1]
  Kd: 13 µM
